Where two headings read alike, the source gives them in different places.

These results are taken from article PMC10108740 (Journal of Medicinal Chemistry, 2023).

Data set [1] relates to SARS-CoV-2 (WA-1). Kind of data set: Antiviral immunofluorescence assay, SARS-CoV-2 WA1 in Vero-TMPRSS2 cells. It counts as cell-based.
Data set [2] concerns SARS-CoV-2 BA.1 (Omicron). The data set can be described thus: microbe, parasite or virus in culture. It counts as cell-based. The settings on record: Severe acute respiratory syndrome coronavirus 2, Calu-3.
In the next data set the test system is SARS-CoV-2 P.1 (Gamma). Kind of data set: microbe, parasite or virus in culture. Format: cell-based. The conditions noted are these: Severe acute respiratory syndrome coronavirus 2, Calu-3.
The subject of data set [3] is SARS-CoV-2 B.1.1.7 (Alpha). Kind of data set: microbe, parasite or virus in culture. It counts as cell-based. The conditions noted are these: Severe acute respiratory syndrome coronavirus 2, Calu-3.
The test system of data set [4] is SARS-CoV-2 B.1.351 (Beta). The data set can be described thus: microbe, parasite or virus in culture. It counts as cell-based. The conditions noted are these: Severe acute respiratory syndrome coronavirus 2, Calu-3.
Data set [5] can be described thus: in vitro. The settings on record: human.
The subject of data set [6] is SARS-CoV-2 WA1 (USA-WA1/2020). Kind of data set: Antiviral immunofluorescence assay, SARS-CoV-2 WA1 in Calu-3 cells. It counts as cell-based. The settings on record: for EC50 / EC90: immunofluorescence, 44 hpi, mean ± SD.
Data set [7] concerns SARS-CoV-2 (WA-1). Also noted: method as in PMID 34310217. The settings on record: Huh7.5 cells; read-out: EC50, inhibition of SARS-CoV-2 replication; cited from earlier work.
For data set [8] the following is noted: hamster, in vivo; cited from earlier work.
In data set [9] the test system is SARS-CoV-2 (WA-1). Kind of data set: Antiviral immunofluorescence assay, SARS-CoV-2 WA1 in Huh7.5 cells. It counts as cell-based. The settings on record: WA-1, Huh7.5 cells, immunofluorescence, 48 hpi; for EC50: read-out: EC50; for EC90: read-out: EC90.
In data set [10] the test system is SARS-CoV-2 B.1.617.2 (Delta). Kind of data set: microbe, parasite or virus in culture. It counts as cell-based. The conditions noted are these: Severe acute respiratory syndrome coronavirus 2, Calu-3.
Data set [11] is described as follows: in vitro. The conditions noted are these: human. This is another data set of the same source.
Data set [12] has as its system SARS-CoV-2 (WA-1). Kind of data set: Antiviral immunofluorescence assay, SARS-CoV-2 WA1 in human pluripotent stem cell-derived lung cells. Format: cell-based. The conditions noted are these: 24 hpi.
Data set [13] has as its system Calu-3 cells. The settings on record: human, 44 h.
Data set [14] in a line: in vitro. The settings on record: chlorocebus aethiops.
Experimental: Cells were seeded as per SARS-CoV-2 infection studies in opaque walled 96-well cell culture plates and incubated overnight for Huh7.5 and Vero-TMPRSS2 cells and for an additional 24h for Calu-3 cells. Compounds or controls were added at the indicated concentrations. Cells were incubated for 48h for Huh7.5 cells, 40–44h for Calu-3 cells, or 30–32h for Vero-TMPRSS2 cells at 37 °C and 5% CO2, an equal volume of CellTiter-Glo reagent (Cat. #G7570, Promega) or CellTiter-Glo 2.0 reagent (Cat. #G9241, Promega) was added and mixed, and luminescence was recorded on a Veritas Microplate Luminometer (Turner BioSystems) according to manufacturer recommendations. Percent viability was calculated compared to DMSO controls, and CC50 values were calculated using Prism 9.
Calu-3 cells were treated for 44h (A), Huh7.5 cells were treated for 48h (B), and Vero-
TMPRSS2 cells were treated for 38h (C) as in infection assays for each cell type. Cell viability
was measured by CellTiter-Glo assay and reported as % cell viability relative to DMSO controls.
Best fit curves calculated in Graphpad Prism 9 were used
to compute cytotoxic concentration 50% (CC50) values in Tables 1-3.
Data set [15] concerns Calu-3 cells. The conditions noted are these: cited from earlier work.
Data set [16] concerns Calu-3 cells. The data set can be described thus: Cell viability assay (CellTiter-Glo), Calu-3 cells. The conditions noted are these: uninfected Calu-3 cells, 44h.
Data set [17] deals with human pluripotent stem cell-derived lung cells. Kind of data set: Cytotoxicity by relative number of nuclei, human pluripotent stem cell-derived lung cells. The conditions noted are these: PSC-lung cells, relative number of nuclei (IF) vs vehicle-treated wells.
A further data set concerns Vero-TMPRSS2 cells. The data set can be described thus: Cell viability assay (CellTiter-Glo), Vero-TMPRSS2 cells. The conditions noted are these: uninfected Vero-TMPRSS2 cells, 38h. On the technique in general: ATP-based viability assays read luminescence as a measure of living cells.
The subject of a further data set is Huh7.5 cells. The data set can be described thus: Cell viability assay (CellTiter-Glo), Huh7.5 cells. The settings on record: uninfected Huh7.5 cells, 48h.
Data set [18] in a line: in vitro. The conditions noted are these: human. The source holds these as a separate data set.
For data set [19], the system named is SARS-CoV-2 WA1 (USA-WA1/2020). Also noted: method as in Schooley et al.[24]. The settings on record: Calu-3 cells, ref Schooley et al.[24]; cited from earlier work.
Where [20] appears, read: Severe acute respiratory syndrome coronavirus 2, Vero/TMPRSS2.
The mark [21] stands for this setting: Severe acute respiratory syndrome coronavirus 2, WA-1, Vero-TMPRSS2 cells, immunofluorescence, 38 hpi.
The mark [22] stands for this setting: Severe acute respiratory syndrome coronavirus 2, WA1, Calu-3 cells.
The mark [23] stands for this setting: WA1, Calu-3 cells, read-out: EC50.
Setting [24] is: Severe acute respiratory syndrome coronavirus 2.
Setting [25] is: Severe acute respiratory syndrome coronavirus 2, WA-1, PSC-lung cells (ALDA 31616 and H9).
Setting [26] is: WA-1, Vero-TMPRSS2 cells, immunofluorescence, 38 hpi.
[27] abbreviates: WA-1, Vero-TMPRSS2 cells, immunofluorescence, 38 hpi, read-out: EC50.
Setting [28] is: WA-1, PSC-lung cells (ALDA 31616 and H9).
Where [29] appears, read: Severe acute respiratory syndrome coronavirus 2, Calu-3, WA1, Calu-3 cells, read-out: EC50.

For orientation: EC50 means the concentration giving half of the maximal effect. Broadly, the EC90 is the point of the concentration-response curve where the effect stands at 90%. On to `CCCCCCCCCCCCCCCCCCOC[C@H](COP(=O)(O)OC[C@H]1O[C@@](C#N)(c2ccc3c(N)ncnn23)[C@H](O)[C@@H]1O)OCc1ccccc1` [Compound V2043, 1-O-octadecyl-2-O-benzyl-sn-glyceryl-phospho-RVn], for which the EC50 with SARS-CoV-2 (WA-1) [1] (setting [20]) was 216 ± 38 nM; in data set [2], 44 ± 12 nM; in the data set with SARS-CoV-2 P.1 (Gamma) it was 167 ± 84 nM; in data set [3], 146 ± 95 nM; in data set [4] it was 146 ± 104 nM; in data set [6] (Severe acute respiratory syndrome coronavirus 2, Calu-3, WA1, Calu-3 cells), 138 nM. For the same molecule, the EC50 in [6] (setting [23]) is 136 ± 56 nM; in the data set with SARS-CoV-2 (WA-1) [7] it was 138 nM; in the data set with SARS-CoV-2 (WA-1) [9] (setting [24]), 140 ± 63 nM; in data set [10], 85 ± 24 nM; with SARS-CoV-2 (WA-1) [12] (setting [25]), 382 ± 205 nM. Besides, the EC90 worked out at 403 ± 128 nM in the data set with SARS-CoV-2 (WA-1) [1] (setting [21]); 359 ± 447 nM in data set [2]; 362 ± 42 nM in the data set with SARS-CoV-2 P.1 (Gamma); 517 ± 169 nM in data set [3]; 645 ± 459 nM in data set [4]; 323 ± 157 nM in data set [6] (setting [22]). Moreover, the EC90 in the data set on SARS-CoV-2 (WA-1) [9] (setting [24]) came to 424 ± 267 nM; in data set [10], 484 ± 457 nM; with SARS-CoV-2 (WA-1) [12] (setting [25]), 736 ± 267 nM. Also, in the data set “in vitro [5]”, the CC50 at 24 h is above 20000 nM. For the same molecule, the oral bioavailability entry in data set [8] is “orally bioavailable”. Besides, the CC50 at 44 h in “in vitro [11]” turned out to be 58300 nM. In the data set with Calu-3 cells [13], this molecule returned a CC50 of 58300 nM. The same molecule gave a CC50 at 38 h in “in vitro [14]” of 97900 nM.
Consider `N#C[C@@]1(c2ccc3c(N)ncnn23)O[C@H](CO)[C@@H](O)[C@H]1O` [RVn, GS-441524], for which the CC50 with Calu-3 cells [15] was above 100000 nM.
As for “((2R,3S,4R,5R)-5-(4-Aminopyrrolo[2,1-f][1,2,4]triazin-7-yl)-5-cyano-3,4-dihydroxytetrahydrofuran-2-yl)methyl ((R)-2-(benzyloxy)-7-(tetradec-5-en-1-yloxy)heptyl) hydrogen phosphate [Compound 10a]”, the concentration for an effect of 90% (EC90) was determined as 570 ± 54 nM in the data set on SARS-CoV-2 (WA-1) [1] (setting [26]); 324 ± 127 nM in [6] (WA1, Calu-3 cells); 224 ± 100 nM in the data set on SARS-CoV-2 (WA-1) [9]; 555 ± 250 nM in the data set on SARS-CoV-2 (WA-1) [12] (setting [28]). Further, the EC50 in the data set on SARS-CoV-2 (WA-1) [1] (setting [27]) is 293 ± 20 nM; in [6] (setting [23]) it was 193 ± 58 nM; in the data set with SARS-CoV-2 (WA-1) [9], 109 ± 55 nM; in the data set on SARS-CoV-2 (WA-1) [12] (setting [28]) it was 267 ± 118 nM. Besides, the CC50 in the data set with Calu-3 cells [16] is 79200 nM; in data set [17] it was above 20000 nM; in the data set on Vero-TMPRSS2 cells, above 100000 nM; with Huh7.5 cells, above 100000 nM.
With “((2R,3S,4R,5R)-5-(4-Aminopyrrolo[2,1-f][1,2,4]triazin-7-yl)-5-cyano-3,4-dihydroxytetrahydrofuran-2-yl)methyl ((R)-2-((3-fluoro-4-methoxybenzyl)oxy)-7-(tetradec-5-en-1-yloxy)heptyl) hydrogen phosphate [Compound 10g]”, the 90% effect concentration (EC90) with SARS-CoV-2 (WA-1) [1] (setting [26]) is 554 ± 54 nM; in data set [6] (WA1, Calu-3 cells), 149 ± 117 nM; with SARS-CoV-2 (WA-1) [9] it was 95 ± 27 nM; in the data set on SARS-CoV-2 (WA-1) [12] (setting [28]), 175 ± 16 nM. For the same molecule, the EC50 is 300 ± 38 nM in the data set on SARS-CoV-2 (WA-1) [1] (setting [27]), 70 ± 3 nM in data set [6] (setting [23]), 54 ± 16 nM with SARS-CoV-2 (WA-1) [9] and 82 ± 13 nM in the data set on SARS-CoV-2 (WA-1) [12] (setting [28]). The CC50 with Calu-3 cells [16] is 58700 nM; in data set [17], above 20000 nM; in the data set on Vero-TMPRSS2 cells, above 100000 nM; in the data set on Huh7.5 cells, above 100000 nM. Moreover, the fold better potency in [6] (3-fluoro-4-methoxybenzyl at sn-2 versus unsubstituted benzyl) is given as 2–3 fold. The “fold more active than RDV” value in data set [6] (Calu-3 cells, based on EC50) came to 3.3 fold.
As for `CCCCCCCCCCCCCCCCOC[C@H](COP(=O)(O)OC[C@H]1O[C@@](C#N)(c2ccc3c(N)ncnn23)[C@H](O)[C@@H]1O)OCc1ccc(OC)c(F)c1` [Compound 11g, ((2R,3S,4R,5R)-5-(4-Aminopyrrolo[2,1-f][1,2,4]triazin-7-yl)-5-cyano-3,4-dihydroxytetrahydrofuran-2-yl)methyl ((R)-2-((3-fluoro-4-methoxybenzyl)oxy)-3-(hexadecyloxy)propyl) hydrogen phosphate], the EC50 amounted to 406 ± 87 nM in the data set with SARS-CoV-2 (WA-1) [1] (setting [20]), 51 ± 18 nM in data set [6] (setting [29]), 50 ± 22 nM in the data set on SARS-CoV-2 (WA-1) [9] (setting [24]) and 130 ± 56 nM with SARS-CoV-2 (WA-1) [12] (setting [25]). The EC90 came out at 858 ± 249 nM in the data set with SARS-CoV-2 (WA-1) [1] (setting [21]), 240 ± 131 nM in [6] (setting [22]), 103 ± 47 nM with SARS-CoV-2 (WA-1) [9] (setting [24]) and 267 ± 19 nM with SARS-CoV-2 (WA-1) [12] (setting [25]). This molecule displayed a CC50 at 24 h in “in vitro [5]” above 20000 nM. Further, the CC50 at 48 h in the data set “in vitro [18]” came to 59000 nM. This molecule gave a CC50 at 44 h in “in vitro [11]” of 75700 nM. In addition, in the data set “in vitro [14]”, the CC50 is above 100000 nM.
In the case of `CCC(CC)COC(=O)[C@H](C)N[P@](=O)(OC[C@H]1O[C@@](C#N)(c2ccc3c(N)ncnn23)[C@H](O)[C@@H]1O)Oc1ccccc1` [RDV, remdesivir], the CC50 with Calu-3 cells [15] (Calu-3 cells, ref Schooley et al.[24]) was above 100000 nM. In data set [19], the EC50 was 230 nM and the EC90 is 310 nM.
For the molecule `CCCCCCCCCCCCCCCCCCOC[C@H](COP(=O)(O)OC[C@H]1O[C@@](C#N)(c2ccc3c(N)ncnn23)[C@H](O)[C@@H]1O)OCc1ccc(OC)c(F)c1` [Compound 9g, ((2R,3S,4R,5R)-5-(4-Aminopyrrolo[2,1-f][1,2,4]triazin-7-yl)-5-cyano-3,4-dihydroxytetrahydrofuran-2-yl)methyl ((R)-2-((3-fluoro-4-methoxybenzyl)oxy)-3-(octadecyloxy)propyl) hydrogen phosphate], the EC50 came to 178 ± 57 nM in the data set on SARS-CoV-2 (WA-1) [1] (setting [20]), 77 ± 27 nM in data set [6] (setting [29]), 60 ± 37 nM in the data set on SARS-CoV-2 (WA-1) [9] (setting [24]) and 167 ± 55 nM in the data set with SARS-CoV-2 (WA-1) [12] (setting [25]). Further, the EC90 with SARS-CoV-2 (WA-1) [1] (setting [21]) came to 294 ± 62 nM; in data set [6] (setting [22]) it was 145 ± 54 nM; with SARS-CoV-2 (WA-1) [9] (setting [24]), 212 ± 86 nM; in the data set with SARS-CoV-2 (WA-1) [12] (setting [25]), 348 ± 121 nM. Moreover, the CC50 at 24 h in “in vitro [5]” is above 20000 nM. Moreover, in “in vitro [18]”, the CC50 at 48 h came to 70100 nM. Besides, the CC50 at 44 h in “in vitro [11]” turned out to be 50500 nM. The molecule also gave a CC50 in the data set “in vitro [14]” above 100000 nM.
